Results published in US20100193777A1, “METHOD OF PRODUCING A DESUBSTITUTED COMPOUND, ORGANIC SEMICONDUCTOR FILM AND METHOD OF PRODUCING THE SAME” (FUJIFILM Corporation, priority 2007, published 2010).

How the values were obtained:
Assay type in all cases: physicochemical
[1] = Solubility in a solvent (chloroform or water); settings: for solubility in water after heating: after heated at 250° C.
Procedure: In the first embodiment of the present invention, the term “solvent-soluble (being soluble in a solvent)” means to show a solubility of 0.1% by mass or more, more preferably 0.5% by mass or more, and further preferably 1% by mass or more, with respect to a solvent in interest when the solvent to which a compound in interest is added is heated under reflux and then cooled down to room temperature. Further, the term “solvent-insolubilization (to make a compound insoluble in a solvent)” means to reduce the solubility by one digit figure or more than the solvent-soluble state. Specifically, with respect to a solvent, when the solvent is heated under reflux and then cooled down to room temperature, it is preferable to reduce from the solubility of 0.1% by mass or more (solvent-soluble) to the solubility of 0.01% by mass or less, further preferably from the solubility of 0.5% by mass or more (solvent-soluble) to the solubility of 0.05% by mass or less, and especially preferably from the solubility of 1% by mass or more (solvent-soluble) to the solubility of less than 0.1% by mass. Further, the term “solvent-insoluble (being insoluble in a solvent)” means to show solubility of less than 0.1% by mass, preferably 0.05% by mass or less, and further preferably 0.01% by mass or less, with respect to a solvent in interest when the solvent to which a compound in interest is added is heated under reflux and then cooled down to room temperature.
There is no particular restriction in the kind of solvent when degrees of the above-described “solvent-soluble” and “solvent-insoluble” are defined. Accordingly, both “solvent-soluble” and “solvent-insoluble” may be defined in terms of solvent and temperature each of which is actually used. Alternatively, for example, these properties may be specified as solubility (25° C.) with respect to water (distilled water). However, the solvent used in the first embodiment of the present invention is not limited by the above.

[2] = TG/DTA thermal analysis (rate of decrease in mass on heating)
Procedure: The thermal analysis (TG/DTA measurement) of the thus-produced Exemplified compound (1) was conducted. The TG/DTA measurement was conducted at the rate of temperature increase of 10° C./min in a range of 30° C. to 550° C. under a current of nitrogen gas (flow rate: 200 ml/min) using EXSTAR 6000 (trade name, manufactured by Seiko Instruments Inc.), to determine a rate of decrease in mass. FIG. 1 is a graph showing TG/DTA measurement results of the Exemplified compound (1). Herein, in each of Examples and Comparative Examples described below, the measurement of TG was conducted using the same apparatus and under the same conditions as described above.
In FIG. 1, the uppermost curve indicates the change of mass with respect to temperature (TG.). The bottom curve indicates the heat going in and out with respect to temperature (enthalpy change) (DTA). The middle curve indicates the amount of change of TG (differential value) per time (DTG).

[3] = Light resistance test of dye films; settings: absorbance at maximum absorption wavelength, 48 h light resistance test
Procedure: The above-described thin films 1 to 4 were each stored for 24 hours under the conditions of 23° C. and 50% RH. Thereafter, these thin films were each subjected to a light resistance test using a merry-go-round type apparatus for testing of light resistance (Cell Testing Apparatus III, trade name, manufactured by Eagle Engineering Co., Ltd., with a filter WG 320, trade name, manufactured by Schott AG). Absorption spectra of the dye films just before the light resistance test and the dye films after the light resistance test for 48 hours were measured using UV-1600 PC (trade name, manufactured by Shimadzu Corporation). A change of absorbance at the maximum absorption wavelength was read from each absorption spectrum.

Molecule | solubility in water [1] | solubility in a solvent such as chloroform [1] | also measured
metal-free phthalocyanine-tetrasulfonic acid [Exemplified compound (54)] | soluble |  | solubility in water after heating [1]: soluble
copper phthalocyanine-tetrasulfonic acid tetrasodium salt | soluble |  | temperature of desubstitution of the substituent ([2]; from TG and MS of heated residue): higher than 400 °C; reduction in weight in TG on heating ([2]; heated up to 400° C., after initial loss of solvent or water): did not cause any reduction in weight
[Cu+2].c1ccc2c(c1)-c1nc-2nc2[n-]c(nc3nc(nc4[n-]c(n1)c1ccccc41)-c1ccccc1-3)c1ccccc21 [cupper phthalocyanine] |  | so low that a film was not formed | 
[Zn+2].c1ccc2c(c1)-c1nc-2nc2[n-]c(nc3nc([n-]c4nc(n1)-c1ccccc1-4)-c1ccccc1-3)c1ccccc21 [zinc phthalocyanine] | so low that a film was not formed | so low that a film was not formed | 
CC(C)(C)OC(=O)N1C(=O)C2=C(c3ccccc3)N(C(=O)OC(C)(C)C)C(=O)C2=C1c1ccccc1 [Compound 1 for comparison] |  |  | Residual rate after 48 hours ([3]; dye film after heating): 91%; Residual rate after 48 hours ([3]; dye film before heating): 1.9%
c1ccc2c(c1)-c1nc-2nc2[nH]c(nc3nc(nc4[nH]c(n1)c1ccccc41)-c1ccccc1-3)c1ccccc21 [metal-free phthalocyanine] | so low that a film was not formed | so low that a film was not formed | 
zinc phthalocyanine-tetrasulfonic acid [Exemplified compound (53)] | soluble |  | solubility in water after heating [1]: soluble
